Converted amounts (≈) assume the structure as drawn. Where a SMILES comes first, the peptide text is derived from it. Bridges are numbered along the chain shown (N, C = ends). Roman numbers before positions name the chains, in order. [ ]: non-standard residue; d: D form. Thr(ol) = C[C@@H](O)[C@H](N)CO; Tle = CC(C)(C)[C@H](N)C(=O)O; NMeV = CN[C@H](C(=O)O)C(C)C; Hiv = CC(C)[C@H](O)C(=O)O; dDab = NCC[C@@H](N)C(=O)O; hSer = N[C@@H](CCO)C(=O)O; Orn = NCCC[C@H](N)C(=O)O; Dab = NCC[C@H](N)C(=O)O; Dap = NC[C@H](N)C(=O)O
Tests used:
Type in all cases: cell-based
[1] = tested on: human red blood cells (hRBC); experiment: Hemolysis; conditions: red cells of human, 1 h, 200
Method in brief: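 Percent hemolysis relative to 2% Triton X-100 (100%) and PBS/10% water (0%), from blank-corrected OD540 of diluted supernatants. Peptides tested at 200 μg/mL against 20% (v/v) washed human erythrocytes, 1 h, 37° C, shaking at 300 rpm.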

[2] = tested on: Escherichia coli 926415; conditions: 926415
Method in brief: (§1)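 Peptides are tested in serial two-fold dilutions against about 10^6 CFU/mL in MH-II broth containing 0.002% P-80 (v/v, final). Plates incubate 18-20 h at 35° C, and the MIC is the lowest peptide level (μg/mL) showing no visible growth.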

[3] = tested on: Acinetobacter baumannii 872842; conditions: 872842
Method in brief: as §1

[4] = tested on: Klebsiella pneumoniae 968733; conditions: 968733
Method in brief: as §1

[5] = tested on: Pseudomonas aeruginosa ATCC 27853; conditions: ATCC 27853
Method in brief: as §1

[6] = tested on: Enterobacter cloacae 848840; conditions: 848840
Method in brief: as §1

[7] = tested on: Acinetobacter baumannii DSM 30008; conditions: DSM 30008
Method in brief: as §1

[8] = tested on: Escherichia coli ATCC 25922; conditions: ATCC 25922
Method in brief: as §1

[9] = tested on: Klebsiella pneumoniae SSI #3010; conditions: SSI #3010
Method in brief: as §1

MIC [2] [µg/mL] | MIC [3] [µg/mL] | MIC [4] [µg/mL] | MIC [5] [µg/mL] | MIC [6] [µg/mL] | MIC [7] [µg/mL] | MIC [8] [µg/mL] | MIC [9] [µg/mL] | Structure (SMILES) | Hemolysis at 200 μg/mL [1] [%]
2 (≈ 0.838 µM) | 0.5 (≈ 0.21 µM) | 2 (≈ 0.838 µM) | 0.25 (≈ 0.105 µM) | 2 (≈ 0.838 µM) | 0.25 (≈ 0.105 µM) | 0.125 (≈ 0.0524 µM) | 0.25 (≈ 0.105 µM) | CC(C)C[C@@H]1NC(=O)[C@@H](CC(C)C)NC(=O)[C@H](CCN)NC(=O)[C@@H](NC(=O)[C@H](CN)NC(=O)[C@@H](NC(=O)[C@H](CCN)NC(=O)CC[C@H]2NC(=O)[C@H](CCCN)NC(=O)[C@@H](NC(=O)[C@H](Cc3ccc(O)cc3)NC(=O)[C@@H](NC(=O)[C@@H](O)C(C)C)[C@@H](C)O)CSSC[C@@H](C(=O)N[C@H](C(=O)N[C@@H](C)C(=O)N[C@H](CO)[C@@H](C)O)C(C)(C)C)NC(=O)[C@H](Cc3c[nH]c4ccccc34)NC(=O)[C@H]([C@@H](C)O)NC2=O)[C@@H](C)O)CCNC(=O)[C@H]([C@@H](C)O)NC(=O)[C@H](CCN)NC(=O)[C@H](CCN)NC1=O [Ex. 210] (I: H-[Hiv]TYC[Orn][dE]TWC[Tle]A[Thr(ol)] / II: [Dab]T[Dap][Dab][Dab][dL]L[Dab][Dab]T; disulfide I:4-I:9; amide I:6-II:N; lactam II:4-II:C) | <1
8 (≈ 3.44 µM) | 0.125 (≈ 0.0538 µM) | 0.5 (≈ 0.215 µM) | 0.125 (≈ 0.0538 µM) | 0.25 (≈ 0.108 µM) | 0.125 (≈ 0.0538 µM) | 0.25 (≈ 0.108 µM) | 0.25 (≈ 0.108 µM) | CC(=O)N[C@H](C(=O)N[C@H]1CSSC[C@@H](C(N)=O)NC(=O)[C@H](C(C)(C)C)NC(=O)[C@H](CO)NC(=O)[C@H](Cc2c[nH]c3ccccc23)NC(=O)[C@H](CCN)NC(=O)[C@@H](CCN)NC(=O)[C@H](CCC(=O)N[C@@H](CCN)C(=O)N[C@H](C(=O)N[C@@H](CN)C(=O)N[C@H]2CCNC(=O)[C@H]([C@@H](C)O)NC(=O)[C@H](CCN)NC(=O)[C@H](CCN)NC(=O)[C@H](CC(C)C)NC(=O)[C@@H](CC(C)C)NC(=O)[C@H](CCN)NC2=O)[C@@H](C)O)NC(=O)[C@H](CN)NC(=O)[C@H](Cc2ccc(O)cc2)NC1=O)C(C)C [Example 10] (I: Ac-VCY[Dap]E[dDab][Dab]WS[Tle]C-NH2 / II: [Dab]T[Dap][Dab][Dab][dL]L[Dab][Dab]T; disulfide I:2-I:11; amide I:5-II:N; lactam II:4-II:C) | <1
0.5 (≈ 0.21 µM) | 0.5 (≈ 0.21 µM) | 0.5 (≈ 0.21 µM) | 0.25 (≈ 0.105 µM) | 0.5 (≈ 0.21 µM) | 0.0625 (≈ 0.0262 µM) | 0.125 (≈ 0.0524 µM) | 0.25 (≈ 0.105 µM) | CC(C)C[C@@H]1NC(=O)[C@@H](CC(C)C)NC(=O)[C@H](CCN)NC(=O)[C@@H](NC(=O)[C@H](CCN)NC(=O)[C@@H](NC(=O)[C@H](CCN)NC(=O)CC[C@@H]2NC(=O)[C@@H](NC(=O)[C@H](Cc3ccc(O)cc3)NC(=O)[C@@H](NC(=O)[C@@H](O)C(C)C)[C@@H](C)O)CSSC[C@@H](C(=O)N[C@H](C(=O)N[C@@H](C)C(=O)N[C@H](CO)[C@@H](C)O)C(C)(C)C)NC(=O)[C@H](Cc3c[nH]c4ccccc34)NC(=O)[C@H](CCO)NC(=O)[C@@H](CCN)NC2=O)[C@@H](C)O)CCNC(=O)[C@H]([C@@H](C)O)NC(=O)[C@H](CCN)NC(=O)[C@H](CCN)NC1=O [Ex. 193] (I: H-[Hiv]TYCE[dDab][hSer]WC[Tle]A[Thr(ol)] / II: [Dab]T[Dab][Dab][Dab][dL]L[Dab][Dab]T; disulfide I:4-I:9; amide I:5-II:N; lactam II:4-II:C) | <1
1 (≈ 0.432 µM) | 1 (≈ 0.432 µM) | 4 (≈ 1.73 µM) | 0.125 (≈ 0.054 µM) | 0.5 (≈ 0.216 µM) | 0.125 (≈ 0.054 µM) | 0.0625 (≈ 0.027 µM) | 0.25 (≈ 0.108 µM) | CN[C@H](C(=O)N[C@H](C(=O)N[C@@H](Cc1ccc(O)cc1)C(=O)N[C@H]1CSSC[C@@H](C(=O)N[C@H](C(=O)N[C@@H](CO)C(N)=O)C(C)C)NC(=O)[C@H](Cc2c[nH]c3ccccc23)NC(=O)[C@H](CCO)NC(=O)[C@@H](CCN)NC(=O)[C@H](CCC(=O)N[C@@H](CCN)C(=O)N[C@H](C(=O)N[C@@H](CCN)C(=O)N[C@H]2CCNC(=O)[C@H]([C@@H](C)O)NC(=O)[C@H](CCN)NC(=O)[C@H](CCN)NC(=O)[C@H](CC(C)C)NC(=O)[C@@H](CC(C)C)NC(=O)[C@H](CCN)NC2=O)[C@@H](C)O)NC1=O)[C@@H](C)O)C(C)C [Ex. 12] (I: H-[NMeV]TYCE[dDab][hSer]WCVS-NH2 / II: [Dab]T[Dab][Dab][Dab][dL]L[Dab][Dab]T; disulfide I:4-I:9; amide I:5-II:N; lactam II:4-II:C) | 2

Source: patent US11629171B2, “Beta-hairpin peptidomimetics” (POLYPHOR AG, priority 2017, dated 2023)
